Assay results: patent US20260176245A1, “MODULATORS OF SORTILIN ACTIVITY” (Vesper Bio ApS, priority 2022, published 2026)

target: T1, Human (6-His) Sortilin (Homo sapiens, UniProt Q99523); assay: Human Sortilin GCI (Grating-Coupled Interferometry) binding assay; conditions: Creoptix WAVE-RAPID, single concentration, immobilised Human (6-His) Sortilin, 1:1 kinetic binding model; read-out: h-Sortilin GCI KD
T1 construct: 6-His; purchased RnD Systems
T1 sequence (Q99523 78-755 limits assumed): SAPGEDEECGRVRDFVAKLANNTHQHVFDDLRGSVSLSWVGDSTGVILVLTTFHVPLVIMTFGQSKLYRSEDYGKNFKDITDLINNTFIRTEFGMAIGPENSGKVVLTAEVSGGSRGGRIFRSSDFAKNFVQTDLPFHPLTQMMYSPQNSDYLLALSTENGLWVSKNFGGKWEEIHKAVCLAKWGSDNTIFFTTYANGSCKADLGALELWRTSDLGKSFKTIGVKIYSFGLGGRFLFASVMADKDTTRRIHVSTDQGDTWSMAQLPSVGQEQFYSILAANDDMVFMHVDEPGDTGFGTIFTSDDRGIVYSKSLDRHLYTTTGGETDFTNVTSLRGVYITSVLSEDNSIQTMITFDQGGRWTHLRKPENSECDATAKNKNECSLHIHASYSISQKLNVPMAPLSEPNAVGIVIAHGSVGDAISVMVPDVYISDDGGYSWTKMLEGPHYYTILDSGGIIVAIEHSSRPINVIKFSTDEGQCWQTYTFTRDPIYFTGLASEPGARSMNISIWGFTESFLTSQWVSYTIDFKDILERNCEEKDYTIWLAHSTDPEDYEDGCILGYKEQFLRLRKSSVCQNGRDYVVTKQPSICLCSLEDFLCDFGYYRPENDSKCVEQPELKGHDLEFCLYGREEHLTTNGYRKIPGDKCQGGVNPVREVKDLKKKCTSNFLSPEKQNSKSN
Method: The exemplified compounds of the invention were tested in a Grating-Coupled Interferometry (GCI) Sortilin binding assay. The Equilibrium dissociation constant (KD) is a measure of the propensity of a complex (i.e: a ligand and receptor) to dissociate and is used to describe the affinity of an interaction between the constituents of the complex (i.e: a ligand and receptor). The skilled person will recognise that the lower the KD value, the less of the compound needed to achieve the desired effect, and as a result, the chances of undesirable off-target effects are reduced.
Compound affinity was determined by measuring the association and dissociation of compounds to Human (6-His) Sortilin (RnD Systems) using a Creoptix Wave instrument (Creoptix-Malvern Panalytical). Both Human (6-His) Sortilin immobilisation and compound evaluation were performed in HBS-N running buffer: 10 mM HEPES pH 7.4, 150 mM NaCl, 1% DMSO-Cytiva which was filtered and degassed for 15 minutes before use.
A 4PCH WAVEchip (Creoptix-Malvern Panalytical) was conditioned prior to immobilisation using 0.2×HBS-N running buffer with 0.1 M Borate pH 9.0, 1 M NaCl (Xantec Bioanalytics) injected across all flow cells. A buffer exchange was performed to 1×HBS-N running buffer and Human (6-His) Sortilin was immobilised in pH 5.0 Acetate solution (Cytiva) via amine coupling following EDC/NHS (Cytiva) surface activation and then passivated via injection of 50 mM Tris pH 7.4.
Compounds were tested in ‘WAVE-RAPID’ assays at a single concentration (usually: 1 μM, 10 µM or 100 µM) in time-response format (short pulses of increasing duration) using either ‘Weak-Binders’ (Settings: 400 μl/min flow rate, 40 Hz acquisition rate, 5 seconds association time and 20 seconds dissociation time) or ‘Intermediate Binders’ (Settings: 100 μl/min flow rate, 10 Hz acquisition rate, 25 seconds association time and 300 seconds dissociation time) settings. Which was deemed most appropriate was based upon the affinity and kinetics of the compound tested.
DMSO calibration was performed as per manufacturers requirements by injection of running buffer containing DMSO 0.5% above that of the running buffer DMSO (1.5% in that instance) every 20 cycles. All data was double referenced (blank and reference-channel subtracted) with KD values calculated by fitting to a ‘1:1 kinetic’ binding model using ‘WAVEcontrol’ software (Creoptix—Malvern Panalytical).

| Kd | Compound |
| --- | --- |
| 12.4 µM | CC(=O)NCC(=O)N[C@@](C)(CCC(C)(C)C)C(=O)O [Example 1, 2-(2-acetamidoacetamido)-2,5,5-trimethylhexanoic acid] |
| 4.64 µM | CC(=O)N[C@@H](C)C(=O)N[C@@](C)(CCC(C)(C)C)C(=O)O [Example 2, (2S)-2-[(2S)-2-acetamidopropanamido]-2,5,5-trimethylhexanoic acid] |
| 1.3 µM | CC[C@H](C)[C@H](NC(C)=O)C(=O)N[C@@](C)(CCC(C)(C)C)C(=O)O [Example 3, (2S)-2-[(2S,3S)-2-acetamido-3-methylpentanamido]-2,5,5-trimethylhexanoic acid] |
| 2 µM | CC(=O)N[C@@H](Cc1ccccc1)C(=O)N[C@@](C)(CCC(C)(C)C)C(=O)O [Example 4, (2S)-2-[(2S)-2-acetamido-3-phenylpropanamido]-2,5,5-trimethylhexanoic acid] |
